According to patent publication US9018224B2, “Substituted cyclopropyl compounds useful as GPR119 agonists” (Merck Sharp & Dohme Corp., priority 2011, dated 2015):

Target: T1, human GPR119 (Homo sapiens, UniProt Q8TDV5)
T1 sequence (Q8TDV5 1-308 limits assumed): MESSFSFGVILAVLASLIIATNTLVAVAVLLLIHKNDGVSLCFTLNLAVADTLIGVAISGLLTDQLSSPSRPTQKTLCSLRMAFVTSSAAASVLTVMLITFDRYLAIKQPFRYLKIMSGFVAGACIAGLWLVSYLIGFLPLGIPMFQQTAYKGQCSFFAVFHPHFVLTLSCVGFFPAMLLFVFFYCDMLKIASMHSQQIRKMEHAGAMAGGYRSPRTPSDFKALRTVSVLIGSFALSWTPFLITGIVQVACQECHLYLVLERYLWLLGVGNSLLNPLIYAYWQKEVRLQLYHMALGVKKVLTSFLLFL
Assay: Measurement of GPR119 signaling by cAMP (LANCE cAMP kit or HTRF) in HEK293 cells transfected with human GPR119
Assay type: cell-based
Settings: agonist cAMP response in HEK293 cells stably transfected with human GPR119; patent does not say which of the two cAMP formats (LANCE or HTRF)
Experimental: Measurement of GPR119 Signaling Using LANCE 384-Well cAMP Kit
The adenylate cyclase assay was constructed following the LANCE™ cAMP Kit (Perkin Elmer, AD0264) instructions. […] The reaction was stopped by incubating with the supplied detection buffer containing the europium chelate of the Eu-SA/Biotin-cAMP tracer for 3 hours. The assay was performed in duplicate in a 384 well plate for duplicate plates. […] Basal activity was determined using a DMSO control and maximum response was defined as cAMP stimulation produced by an internal agonist control. Standard cAMP concentrations were assayed concurrently for conversion of fluorescence signal to cAMP level. The data was analyzed using 4-parameter curve fit in Microsoft Excel
Measurement of GPR119 Signaling Using a Cyclic AMP (cAMP) Homogenous Time Resolved Fluorescence (HTRF) Assay
Chinese hamster ovary (CHO) cell lines stably transfected with the permissive guanine nucleotide binding protein alpha 15 (Gα15) and murine GPR119 were maintained in DMEM media containing FBS, penicillin-streptomycin, puromycin, and G418 (geneticin). […] Agonist activation of the GPR119 receptor was measured in receptor transfected cells described above, treated with compounds of this invention, using a commercial homogenous time resolved fluorescence (HTRF) kit for measurement of cAMP (CisBio, Bedford, Mass.). The assay was performed in 96-well half-volume plates (murine) or 384-well plates (human) following the manufacturers instructions. Briefly, suspended cells were incubated with a dose titration of test compound at room temperature for 60 min, lysed, and incubated with HTRF reagents for an additional 60 min. The plate was read using an Envision multilabel reader (Perkin Elmer) adjusted to read time resolved fluorescence and the cAMP concentrations were extrapolated from a cAMP calibration curve. […] The concentration of test compound required to stimulate a half-maximal response (EC50), and efficacy as compared to an internal agonist control, was determined from a sigmoidal 4-parameter curve fit of the resulting plot of normalized activity versus compound concentration.

Row | Compound | EC50 [nM]
1 | CC1CCN(C(=O)Cc2ccc(OCC[C@@H]3C[C@@H]3C3CCN(c4ncc(Cl)cn4)CC3)cc2F)CC1 [Example 99] | 4
2 | CCOc1cnc(N2CCC([C@H]3C[C@H]3CCOc3cc(F)c(CC(=O)N4CCOCC4)c(F)c3)CC2)nc1 [Example 235] | 0.26
3 | C[C@H]1CCCN1C(=O)Cc1ccc(OCC[C@@H]2C[C@@H]2C2CCN(c3ncc(Cl)cn3)CC2)cc1F [Example 73] | 2.7
4 | O=C(Cc1ccc(OCC[C@@H]2C[C@@H]2C2CCN(c3ncc(Cl)cn3)CC2)cc1F)N1CCc2ncccc2C1 [Example 198] | 1.3
5 | CC1(NC(=O)Cc2ccc(OCC[C@@H]3C[C@@H]3C3CCN(c4ncc(Cl)cn4)CC3)cc2F)CC1 [Example 93] | 3.7
6 | COc1cnc(N2CCC([C@H]3C[C@H]3CCOc3ccc(CC(=O)N4CCC4)c(F)c3)CC2)nc1 [Example 37] | 0.94
7 | COCc1cnc(N2CCC([C@H]3C[C@H]3CCOc3ccc(CC(=O)N4CCC4)cc3F)CC2)nc1 [Example 251] | 5.5
8 | O=C(Cc1ccc(OCC[C@@H]2C[C@@H]2C2CCN(c3ncc(Cl)cn3)CC2)cc1F)N1CCC[C@@H]1C(F)(F)F [Example 76] | 2.4
9 | CC1(C)CCN1C(=O)Cc1ccc(OCC[C@@H]2C[C@@H]2C2CCN(c3ncc(Cl)cn3)CC2)cc1F [Example 97] | 3.2
10 | COCc1cnc(N2CCC([C@H]3C[C@H]3CCOc3ccc(CC(=O)N4CC(OC)C4)cc3)CC2)nc1 [Example 8] | 2.9
11 | COCc1cnc(N2CCC([C@H]3C[C@H]3CCOc3cc(F)c(CC(=O)N4CC(O)C4)c(F)c3)CC2)nc1 [Example 218, 1-({2,6-difluoro-4-[2-((1S,2R)-2-{1-[5-(methoxymethyl)pyrimidin-2-yl]piperidin-4-yl}cyclopropyl)ethoxy]phenyl}acetyl)azetidin-3-ol] | 1.6
12 | O=C(Cc1ccc(OCC[C@@H]2C[C@@H]2C2CCN(c3ncc(Cl)cn3)CC2)cc1F)N1CCCCC1 [Example 84] | 1.5
13 | COc1cc(OCC[C@@H]2C[C@@H]2C2CCN(c3ncc(Cl)cn3)CC2)ccc1CC(=O)N1CCC1 [Example 26, 1-(azetidin-1-yl)-2-[4-(2-{(1S,2R)-2-[1-(5-chloropyrimidin-2-yl)piperidin-4-yl]cyclopropyl}ethoxy)-2-methoxyphenyl]ethanone] | 7.1
14 | COCc1cnc(N2CCC([C@H]3C[C@H]3CCOc3ccc(CC(=O)N4CC(F)(F)C4)cc3)CC2)nc1 [Example 12] | 3
15 | CCc1cnc(N2CCC([C@H]3C[C@H]3CCOc3ccc(CC(=O)NC4CC4)c(F)c3)CC2)nc1 [Example 208] | 1.9
16 | O=C(Cc1ccc(OCC[C@@H]2C[C@@H]2C2CCN(c3ncc(Cl)cn3)CC2)cc1F)N1CCc2nccnc2C1 [Example 125] | 0.96
17 | Cc1nc2c(o1)CN(C(=O)Cc1ccc(OCC[C@@H]3C[C@@H]3C3CCN(c4ncc(Cl)cn4)CC3)cc1F)CC2 [Example 141] | 1.2
18 | O=C(Cc1ccc(OCC[C@@H]2C[C@@H]2C2CCN(c3ncc(Cl)cn3)CC2)cc1F)N1CCCc2[nH]nc(C3CC3)c21 [Example 196] | 5.4
19 | CN(CC1CCOCC1)C(=O)Cc1ccc(OCC[C@@H]2C[C@@H]2C2CCN(c3ncc(Cl)cn3)CC2)cc1F [Example 157] | 2.4
20 | CN(CC(C)(C)C)C(=O)Cc1ccc(OCC[C@@H]2C[C@@H]2C2CCN(c3ncc(Cl)cn3)CC2)cc1F [Example 168] | 9.4
21 | COCc1cnc(N2CCC([C@H]3C[C@H]3CCOc3ccc(CC(=O)N4CC(F)C4)cc3)CC2)nc1 [Example 11] | 2.9
22 | COCc1cnc(N2CCC([C@H]3C[C@H]3CCOc3ccc(CC(=O)N4CC5CC5C4)c(F)c3)CC2)nc1 (stereo partly shown) [Example 51] | 0.98
23 | CC(C)(O)c1cnc(N2CCC([C@H]3C[C@H]3CCOc3ccc(CC(=O)N4CCC4)c(F)c3)CC2)nc1 [Example 205, 1-(azetidin-1-yl)-2-(2-fluoro-4-{2-[(1S,2R)-2-{1-[5-(2-hydroxypropan-2-yl]pyrimidin-2-yl]piperidin-4-yl}cyclopropyl]ethoxy}phenyl)ethanone] | 7.5

Row | Compound | EC50 [nM]
24 | C[C@H]1CCCN1C(=O)Cc1ccc(OCC[C@@H]2C[C@@H]2C2CCN(c3ncc(Cl)cn3)CC2)cc1F [Example 117] | 1.7
25 | CN(C(=O)Cc1ccc(OCC[C@@H]2C[C@@H]2C2CCN(c3ncc(Cl)cn3)CC2)cc1F)C1CCOCC1 [Example 155] | 1.3
26 | COCc1cnc(N2CCC([C@H]3C[C@H]3CCOc3ccc(CC(=O)N(C)C4CC4)c(F)c3)CC2)nc1 [Example 55] | 4.4
27 | CC1(O)CN(C(=O)Cc2ccc(OCC[C@@H]3C[C@@H]3C3CCN(c4ncc(Cl)cn4)CC3)cc2F)C1 [Example 66] | 0.4
28 | O=C(Cc1ccc(OCC[C@@H]2C[C@@H]2C2CCN(c3ncc(Cl)cn3)CC2)c(F)c1)N1CCC1 [Example 250] | 2.2
29 | COCc1cnc(N2CCC([C@H]3C[C@H]3CCOc3ccc(CC(=O)N4CC(C)C4)cc3)CC2)nc1 [Example 14] | 5.5
30 | CC1CN(C(=O)Cc2ccc(OCC[C@@H]3C[C@@H]3C3CCN(c4ncc(Cl)cn4)CC3)cc2F)Cc2nnc(C(F)(F)F)n21 (stereo partly shown) [Example 175] | 1.1
31 | O=C(c1cn2c(n1)CN(C(=O)Cc1ccc(OCC[C@@H]3C[C@@H]3C3CCN(c4ncc(Cl)cn4)CC3)cc1F)CC2)C1CC1 [Example 144] | 7.2
32 | O=C(Cc1ccc(OCC[C@@H]2C[C@@H]2C2CCN(c3ncc(Cl)cn3)CC2)cc1F)N1CCCC1CO (stereo partly shown) [Example 108] | 2.5
33 | Cc1cnc(Cc2ccc(OCC[C@@H]3C[C@@H]3C3CCN(c4ncc(Cl)cn4)CC3)cc2F)o1 [Example 243, 5-chloro-2-{4-[(1R,2S)-2-(2-{3-fluoro-4-[(5-methyl-1,3-oxazol-2-yl)methyl]phenoxy}ethyl)cyclopropyl]piperidin-1-yl}pyrimidine] | 2.5
34 | O=C(Cc1ccc(OCC[C@@H]2C[C@@H]2C2CCN(c3ncc(Cl)cn3)CC2)cc1F)NCC1CC1 [Example 77, 2-[4-(2-(1S,2R)-2-[1-(5-chloropyrimidin-2-yl)piperidin-4-yl]cyclopropylethoxy)-2-fluorophenyl]-N-(cyclopropylmethyl)acetamide] | 1.5
35 | CC(CO)NC(=O)Cc1ccc(OCC[C@@H]2C[C@@H]2C2CCN(c3ncc(Cl)cn3)CC2)cc1F (stereo partly shown) [Example 116] | 9.2
36 | O=C(Cc1ccc(OCC[C@@H]2C[C@@H]2C2CCN(c3ncc(Cl)cn3)CC2)cc1F)N1CCCc2cnccc21 [Example 194] | 3.6
37 | CCC(C)CN(C)C(=O)Cc1ccc(OCC[C@@H]2C[C@@H]2C2CCN(c3ncc(Cl)cn3)CC2)cc1F (stereo partly shown) [Example 160] | 3.1
38 | O=C(Cc1ccc(OCC[C@@H]2C[C@@H]2C2CCN(c3ncc(Cl)cn3)CC2)cc1F)NC1CC1 [Example 62] | 1.4
39 | O=C(Cc1ccc(OCC[C@@H]2C[C@@H]2C2CCN(c3ncc(Cl)cn3)CC2)cc1F)N1CCc2ncncc2C1 [Example 127] | 1.5
40 | COC[C@@H]1CCCN1C(=O)Cc1ccc(OCC[C@@H]2C[C@@H]2C2CCN(c3ncc(Cl)cn3)CC2)cc1F [Example 78] | 3.8
41 | COCc1cnc(N2CCC([C@H]3C[C@H]3CCOc3ccc(CC(=O)N4CCc5nc(C)oc5C4)c(F)c3)CC2)nc1 [Example 58] | 1.2
42 | CCOCc1cnc(N2CCC([C@H]3C[C@H]3CCOc3ccc(CC(=O)N4CCC4)c(F)c3)CC2)nc1 [Example 200] | 0.79
43 | CN(C)C(=O)Cc1ccc(OCC[C@@H]2C[C@@H]2C2CCN(c3ncc(Cl)cn3)CC2)cc1F [Example 81] | 0.63
44 | O=C(Cc1ccc(OCC[C@@H]2C[C@@H]2C2CCN(c3ncc(Cl)cn3)CC2)cc1F)N1C[C@H](F)[C@@H](F)C1 [Example 75] | 0.78
45 | COCc1cnc(N2CCC([C@H]3C[C@H]3CCOc3ccc(CC(=O)N4CC(O)C4)c(Cl)c3)CC2)nc1 [Example 29] | 2.4
46 | O=C(Cc1ccc(OCC[C@@H]2C[C@@H]2C2CCN(c3ncc(Cl)cn3)CC2)cc1F)N1CCn2ccnc2C1 [Example 149] | 1.1
